# Experimental data taken from patent US8242250B2, “Nucleic acid molecule encoding a cystine knot polypeptide” (The University of Queensland, priority 1999, dated 2012).
# Tests used:
# [1] = test system: Helicoverpa punctigera larvae; assay: Bioassay with Haricot bean artificial diet, growth and development of larvae; assay type: in vivo
# Protocol: Helicoverpa punctigera larvae were raised on artificial diets based on Haricot beans (Teakle et al. (13)). One litre of diet was composed of 234 g Haricot beans, 14 g agar, 700 ml water, 35 g Tortula yeast, 50 g wheatgerm, 3.5 g ascorbic acid, 1.1 g sorbic acid, 2.2 g p-hydroxybenzoic acid methyl ester, 0.2 g ampicillin, 0.2 g streptomycin, 16 mg prochloraz. The beans were soaked overnight in water, drained and homogenized to a fine paste. Wheatgerm, yeast and 300 ml of water were added. The agar was dissolved in 400 ml of boiling water and added to the mixture. The mixture was cooled to 50° C. before the addition of the remaining ingredients. The blended diet was poured into trays and after setting was used immediately or stored at −20° C. for no longer than two weeks. The test diet was supplemented with the Kalata B1 peptide (0.825 μmol/g of diet). Twenty newly emerged neonates were added to each diet and mortality was recorded every two days. Weight gain was recorded at the sixth day and then every second day thereafter. The larvae were reared in 1.5 ml eppendorfs microfuge tubes (one larva/tube) until day eight when they were transferred to individual plastic containers with lids (Solo (trademark) plastic portion cups, 28 ml) at the eight day. Larvae were fed small amounts of diet (40 mg) initially that was replaced as required to provide a continuous supply. The larvae were kept in a temperature controlled room at 25±1° C., 16:8 (L:D).
# Most larvae on the control diet, however, had achieved fifth instar (FIGS. 13B, C).
# [2] = test system: Helicoverpa armigera larvae; assay: Bioassay with cotton leaf artificial diet, growth and development of larvae; assay type: in vivo
# Protocol: Helicoverpa armigera larvae were raised on an artificial diet based on cotton leaves. One hundred ml of cotton leaf artificial diet was composed of 3 g cotton leaf powder (see below), 2 g Tortula yeast, 2.4 g wheat germ, 3.2 g ascorbic acid, 0.08 g sorbic acid, 0.16 g paraben (mould inhibitor), 0.08 ml linseed oil, 0.16 ml wheatgerm oil, 0.028 g ampicillin, 0.028 g streptomycin, 3.2 g agar and 80 ml water. Cotton leaf powder was prepared from freshly picked young, healthy cotton leaves which had been rapidly frozen in liquid nitrogen and freeze dried before they were ground to a fine powder using a mortar and pestle. Test diets contained the cyclic Kalata B1 peptide at 0.15% w/v of diet (high kalata) or 0.03% w/v of diet (low kalata), linear peptide (backbone chain opened between residues 7 and 8 [see FIG. 1A] at 0.15% w/v of diet. The control diet contained casein at 0.15% w/v of diet. The diet was mixed and dispensed as described for the Haricot bean diet and the bioassay was conducted in the same manner.
# Newly hatched larvae were fed on an artificial diet based on cotton leaves, with and without added Kalata B1. […] Larvae on the Kalata B1 diet were about 18% of the size of those fed on the control diet.
# Kalata peptides isolated from leaves are normally cyclic. The inventors sought to determine whether cyclization was essential for biological activity against insects. Newly hatched H. armigera larvae were added to an artificial diet based on cotton leaves which had been supplemented with cyclic Kalata B1 at either 0.15% w/v of diet or 0.03% w/v of diet. Growth of these larvae was compared to growth of larvae on diet with no added peptide or with added linear Kalata B1 at 0.15% w/v of the diet. Linear Kalata B1 is identical to cyclic Kalata B1 except the backbone chain is open between residues 7 and 8 [see FIG. 1A].
substance,measurement,setting,value
"Kalata B1: 29 amino acid peptide with cyclic backbone and cystine knot from O. affinis (SEQ ID NO: 41) (cyclo(VCGETCVGGTCNTPGCTCSWPVCTRNGLP); disulfide (positions not given here); also: cystine knot, pairings not given here; listed as Oldenlandia affinis)",instar stage of development reached by survivors after 16 days,"[1]; 0.825 μmol/g of diet, 16 days, most control larvae at fifth instar",none of the 12 survivors had progressed past the first instar stage of development
same,larvae that failed to survive past day 16,"[1]; 0.825 μmol/g of diet, day 16",50%
same,mortality in the first six days,"[1]; 0.825 μmol/g of diet, first six days, twenty neonates",No mortality
same,size of larvae after 16 days on artificial diet,"[1]; 16 days, control diet ~30 mm (FIG. 13C)",~5 mm
same,effect on the development of larvae,[1]; Haricot bean diet with peptide 0.825 μmol/g of diet,significant effect
same,size of larvae relative to those fed on the control diet,"[2]; cotton leaf diet with added Kalata B1, 12 days",about 18%
same,instar stage of development reached after 12 days,"[2]; cotton leaf diet, 12 days, control larvae at third to fourth instar",failed to progress past the first instar stage of development
same,effect on growth compared with the linear form,[2]; cyclic form at one fifth the concentration of the linear form (0.03% vs 0.15% w/v of diet),more significant effect on growth
